The subject of test [1] is HCV sub-genomic replicon GS4.3 (HuH-7 hepatoma cells). Kind of test: Quantitation by ELISA of neomycin phosphotransferase II (NPTII) in the HCV sub-genomic replicon, GS4.3. Format: cell-based. An excerpt:
Quantitation by ELISA of the Selectable Marker Protein, Neomycin Phosphotransferase II (NPTII) in the HCV Sub-Genomic Replicon, GS4.3
The HCV sub-genomic replicon (1377/NS3-3′, accession No. AJ242652), stably maintained in HuH-7 hepatoma cells, was created by Lohmann et al. Science 285: 110-113 (1999). The replicon-containing cell culture, designated GS4.3, was obtained from Dr. Christoph Seeger of the Institute for Cancer Research, Fox Chase Cancer Center, Philadelphia, Pa.
GS4.3 cells were maintained at 37° C., 5% CO2, in DMEM (Gibco 11965-092) supplemented with L-glutamine 200 mM (100×) (Gibco25030-081), non-essential amino acids (NEAA)(Biowhittaker 13-114E), heat-inactivated (HI) Fetal Bovine Serum(FBS)(Hyclone SH3007.03) and […] geneticin (G418)(Gibco 10131-035). Cells were sub-divided 1:3 or 4 every 2-3 days.
24 h prior to the assay, GS4.3 cells were collected, counted, and plated in 96-well plates (Costar 3585) at 7500 cells/well in 100 μl standard maintenance medium (above) and incubated in the conditions above. To initiate the assay, culture medium was removed, cells were washed once with PBS (Gibco 10010-023) and 90 μl Assay Medium (DMEM, L-glutamine, NEAA, 10% HI FBS, no G418) was added. Inhibitors were made as a 10× stock in Assay Medium, (3-fold dilutions from 10 μM to […] final concentration, final DMSO concentration 1%), 10 μl were added to duplicate wells, plates were rocked to mix, and incubated as above for 72 h.
An NPTII Elisa kit was obtained from AGDIA, Inc. (Compound direct ELISA test system for Neomycin Phosphotransferase II, PSP 73000/4800). Manufacturer's instructions were followed, with some modifications. 10×PEB-1 lysis buffer was made up to include 500 μM PMSF (Sigma P7626, 50 mM stock in isopropanol). After 72 h incubation, cells were washed once with PBS and 150 μlPEB-1 with PMSF was added per well. Plates were agitated vigorously for 15 minutes, room temperature, then frozen at −70° C. Plates were thawed, lysates were mixed thoroughly, and 100 μl were applied to an NPTII Elisa plate. A standard curve was made. Lysate from DMSO-treated control cells was pooled, serially diluted with PEB-1 with PMSF, and applied to duplicate wells of the ELISA plate, in a range of initial lysate amount of 150 ul-2.5 ul. In addition, 100 μl buffer alone was applied in duplicate as a blank. Plates were sealed and gently agitated at room temperature for 2 h. Following capture incubation, the plates were washed 5×300 μlwith PBS-T (0.5% Tween-20, PBS-T was supplied in the ELISA kit). For detection, a 1× dilution of enzyme conjugate diluent MRS-2 (5×) was made in PBS-T, into which 1:100 dilutions of enzyme conjugates A and B were added, as per instructions. Plates were resealed, and incubated with agitation, covered, room temperature, for 2 h. The washing was then repeated and 100 μlof room temperature TMB substrate was added. After approximately 30 minutes incubation (room temperature, agitation, covered), the reaction was stopped with 50 μl 3M sulfuric acid. Plates were read at 450 nm on a Molecular Devices Versamax plate reader.
Inhibitor effect was expressed as a percentage of DMSO-treated control signal, and inhibition curves were calculated using a 4-parameter equation: y=A+4B-A)/(1+((C/x)^13))), where C is half-maximal activity or EC50.
On the technique in general: In an ELISA, binding on a coated surface is turned into a signal by an enzyme label.

In test [2] the target is T1, NS3-NS4 protease (full-length NS3/NS4A-2) (Hepatitis C virus genotype 1a, UniProt P27958).
T1 construct: Recombinant E. coli or Baculovirus full-length NS3 was diluted to 3.33 μM with assay buffer; made in house; host or cells: E. coli or baculovirus (insect cells)
Nature of the test: NS3-NS4 protease assay / NS3 inhibition assay (RETS1 substrate, fluorescence kinetic read). Format: biochemical. Particulars: read-out: NS3-NS4 IC50. As to the method: NS3 complex formation with NS4A-2.
The appropriate amount of NS4A-2 to 8.3 mM in assay buffer was added to equal the volume of NS3 in step 2.1.1 (conversion factor—3.8 mg/272 μL assay buffer). The material was transferred to an eppendorf tube and place in water bath in 4° C. refrigerator.
After equilibration to 4° C., equal volumes of NS3 and NS4A-2 solutions were combined in an eppendorf tube, mix gently with a manual pipettor, and incubate mixture for 15 minutes in the 4° C. water bath.
After 15 minutes at 4° C., the NS3/NS4A-2 eppendorf tube was removed and place it in a room temperature water bath for 10 minutes. NS3/NS4A-2 was alliquoted at appropriate volumes and store at −80° C. (E. coli NS3 run at 2 nM in assay, aliquot at 25 μL. BV NS3 run at 3 nM in assay, aliquot at 30 μL).
Sample compounds were dissolved to 10 mM in DMSO then diluted to 2.5 mM (1:4) in DMSO.
The E. coli. […] Using the manual multichannel pipettor, careful not to introduce bubbles into the plate, add 50 μL assay buffer to wells A01-H01 of a black Costar 96-well polypropylene storage plate.
Using the manual multichannel pipettor, careful not to introduce bubbles into the plate, add 50 μL of diluted NS3/NS4A-2 from step 2.2.6 to wells A02-H12 of plate in step 2.2.7. Using the manual multichannel pipettor, careful not to introduce bubbles into the plate, transfer 25 μL of the wells in drug dilution plate in step 2.2.5 to corresponding wells in assay plate in step 2.2.8. Change tips on multichannel pipettor for each row of compounds transferred. Using the manual multichannel pipettor, careful not to introduce bubbles into the plate, mix the wells from the assay plate in step 2.2.9 by aspirating and dispensing 35 μL of the 75 μL in each well five times. Change tips on multichannel pipettor for each row of wells mixed. Cover plate with a polystyrene plate lid and pre-incubate the plate from step 2.2.10 containing NS3 protease and sample compounds 10 minutes at room temperature. While plate from step 2.2.11 is pre-incubating, dilute RETS1 substrate in a 15 mL polypropylene centrifuge tube.
After the plate in step is done pre-incubating, and using the manual multichannel, add 25 μL of substrate to all wells on the plate. Quickly mix the plate as in step 2.2.10, mixing 65 μL of the 100 μL in the wells.
Read the plate in kinetic mode on the Molecular Devices SpectraMax
IC50s are determined using a four parameter curve fit equation, and converted to Ki's using the following Km's:
where Ki=IC50/(1+[S]/Km))

The mark [3] stands for this setting: Hepatitis C virus, Huh-7, GS4.3 cells, 72 h, read-out: Replicon EC50.
Setting [4] is: GS4.3 cells, 72 h, read-out: Replicon EC50.
Where [5] appears, read: Hepatitis C virus, Huh-7, Table 26, read-out: EC50.

Like-named read-outs stand apart in the source and are kept apart here.

By EC50 is commonly meant the concentration needed to bring the measured effect to its halfway point. What is called IC50 is the concentration needed to halve the response being measured.

T1 sequence (P27958 1027-1657): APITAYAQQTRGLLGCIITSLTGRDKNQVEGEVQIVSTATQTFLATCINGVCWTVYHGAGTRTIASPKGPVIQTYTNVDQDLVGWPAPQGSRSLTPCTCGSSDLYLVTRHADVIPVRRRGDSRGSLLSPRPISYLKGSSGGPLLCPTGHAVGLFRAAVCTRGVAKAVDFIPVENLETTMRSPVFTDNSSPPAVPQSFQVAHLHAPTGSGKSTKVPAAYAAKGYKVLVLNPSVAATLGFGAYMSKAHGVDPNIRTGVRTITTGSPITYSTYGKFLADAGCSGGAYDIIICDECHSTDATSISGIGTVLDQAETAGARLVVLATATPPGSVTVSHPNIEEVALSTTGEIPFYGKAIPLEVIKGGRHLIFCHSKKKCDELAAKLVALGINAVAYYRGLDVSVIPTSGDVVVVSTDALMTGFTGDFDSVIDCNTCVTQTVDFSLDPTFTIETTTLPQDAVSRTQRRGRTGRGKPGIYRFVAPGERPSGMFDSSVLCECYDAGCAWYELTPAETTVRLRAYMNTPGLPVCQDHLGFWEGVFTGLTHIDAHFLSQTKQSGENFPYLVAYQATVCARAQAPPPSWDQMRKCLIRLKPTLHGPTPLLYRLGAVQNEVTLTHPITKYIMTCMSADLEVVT

On to `CC(C)(C)OC(=O)NC1CCCCC/C=C\[C@H]2C[C@@]2(C(=O)NS(=O)(=O)NCC(F)(F)F)NC(=O)C2CC(OC(=O)N3Cc4cccc(Cl)c4C3)CN2C1=O` (single isomer, unassigned) [Compound 226], for which the 50% effective concentration (EC50) in test [1] (setting [3]) was below 0.1 µM. Also, the IC50 in test [2] is below 100 nM.

For the molecule `CC(C)(C)OC(=O)N[C@H]1CCCCC/C=C\[C@@H]2C[C@@]2(C(=O)NS(=O)(=O)C2(C)CC2)NC(=O)[C@@H]2C[C@@H](OC(=O)N3Cc4ccccc4C3)CN2C1=O` [Compound 100, (1S,4R,6S,14S,18R)-1,3-Dihydro-isoindole-2-carboxylic acid 14-tert-butoxycarbonylamino-4-(1-methylcyclopropane-1-sulfonyl)aminocarbonyl-2,15-dioxo-3,16-diaza-tricyclo[14.3.0.0^4,6]nonadec-7-en-18-yl Ester], in test [1] (setting [3]), the EC50 was below 0.1 µM. Also, in test [2], the half-maximal inhibitory concentration (IC50) is below 100 nM.

Take `C[C@@H](NC(=O)O[C@@H]1C[C@H]2C(=O)N[C@]3(C(=O)NS(=O)(=O)C4CC4)C[C@H]3/C=C\CCCCC[C@H](NC(=O)OC(C)(C)C)C(=O)N2C1)c1ccc(F)cn1` [Compound 150]: the EC50 in test [1] (setting [4]) is above 10 µM. Moreover, the IC50 in test [2] is below 100 nM.

With `CC(C)(C)OC(=O)N[C@H]1CCCCC/C=C\[C@@H]2C[C@@]2(C(=O)NS(=O)(=O)C2CC2)NC(=O)C2C[C@@H](OC(=O)NCc3ccc(F)cn3)CN2C1=O` (stereo partly shown) [Compound 152], in test [1] (setting [3]), the 50% effective concentration (EC50) was above 10 µM. Moreover, the IC50 in test [2] is below 100 nM.

In the case of `CC(C)(C)OC(=O)N[C@H]1CCCCC/C=C\[C@@H]2C[C@@]2(C(=O)O)NC(=O)C2C[C@@H](OC(=O)N3Cc4cccc(Cl)c4C3)CN2C1=O` (stereo partly shown) [Compound 177], in test [1] (setting [3]), the concentration giving a half-maximal response (EC50) was below 10 µM. Further, in test [2], the half-inhibitory concentration (IC50) was below 100 nM.

`O=C1N[C@]2(C(=O)NS(=O)(=O)C3CC3)C[C@H]2/C=C\CCCCC[C@H](NC(=O)C2(C(F)(F)F)CC2)C(=O)N2C[C@H](OC(=O)N3Cc4cccc(Cl)c4C3)C[C@@H]12` [Compound 265]: in test [1] (setting [3]), the EC50 is below 0.1 µM. Also, the IC50 in test [2] was below 100 nM.

Regarding `CC(C)(C)OC(=O)N[C@H]1CCCCC/C=C\[C@@H]2C[C@@]2(C(=O)NC(=O)c2ccccc2)NC(=O)[C@@H]2C[C@@H](OC(=O)N3Cc4ccccc4C3)CC2C1=O` (stereo partly shown) [Compound 705], the EC50 in test [1] (setting [3]) was below 0.1 µM. Moreover, in test [2], the concentration for half-maximal inhibition (IC50) is below 100 nM.

As for `O=C1N[C@]2(C(=O)NS(=O)(=O)C3CC3)C[C@H]2/C=C\CCCCC[C@H](NCc2ccc(CO)o2)C(=O)N2C[C@H](OC(=O)N3Cc4cccc(F)c4C3)C[C@@H]12` [Compound 913], in test [1] (setting [3]), the EC50 is below 1 µM. In test [2], the half-inhibitory concentration (IC50) was below 100 nM.

On to `CC(C)(C)OC(=O)N[C@H]1CCC(F)(F)CCCC[C@@H]2C[C@@]2(C(=O)NS(=O)(=O)C2CC2)NC(=O)[C@@H]2C[C@@H](OC(=O)N3Cc4cccc(F)c4C3)CN2C1=O` [Compound 1010, (2R,6S,13aS,14aR,16aS,Z)-6-(tert-butoxycarbonylamino)-14a-(cyclopropylsulfonylcarbamoyl)-9,9-difluoro-5,16-dioxooctadecahydrocyclopropa (e) prrolo[1,2-a][1,4]diazacyclopentadecine 2-yl 4-fluoroisoindoline-2-carboxylate], for which, in test [1] (setting [3]), the EC50 is below 0.1 µM. Also, in test [2], the 50% inhibitory concentration (IC50) is below 100 nM.

For `CC(C)(C)OC(=O)N[C@H]1CCCOC/C=C\[C@@H]2C[C@@]2(C(=O)NS(=O)(=O)C2CC2)NC(=O)[C@@H]2C[C@@H](OC(=O)N3Cc4cccc(F)c4C3)CN2C1=O` [Compound 1021, (2R,6S,13aS,14aR,16aS,Z)-6-(tert-butoxycarbonylamino)-14a-(cyclopropylsulfonylcarbamoyl)-5,16-dioxo-2,3,5,6,7,8,9,11,13a,14,14a,15,16,16a-tetradecahydro-1H-cyclopropa(e)pyrrolo[2,1-i][1,7,10]oxadiazacyclopentadecin-2-yl 4-fluoroisoindoline-2-carboxylate], in test [1] (setting [4]), the EC50 was above 10 µM. The concentration for half-maximal inhibition (IC50) in test [2] is below 10000 nM.

Regarding `CC(C)(C)OC(=O)N[C@H]1CCN(S(=O)(=O)c2ccccc2[N+](=O)[O-])CC/C=C\[C@@H]2C[C@@]2(C(=O)O)NC(=O)[C@@H]2C[C@@H](OC(=O)N3Cc4cccc(F)c4C3)CN2C1=O` [Compound 1029], the EC50 in test [1] (setting [3]) was below 10 µM. Further, the IC50 in test [2] is below 100 nM.

Turning to `CC(C)(C)OC(=O)N[C@H]1CCCCC/C=C\[C@@H]2C[C@@]2(C(=O)NS(=O)(=O)C2CC2)NC(=O)[C@@H]2CCCN2C1=O` [Compound 2137, 1S,4R,6S,14S)tert-but 14-Cyclopropanesulfonylaminocarbonyl-2,15-dioxo-3,16-diaza-tricyclo[14.3.0.0^4,6]nonadec-7-ene-14-yl carbamate], in test [1] (setting [5]), the EC50 was above 10 µM. Further, the IC50 in test [2] was above 10000 nM.

For `O=C(CCC(F)(F)F)N[C@H]1CCCCC/C=C\[C@@H]2C[C@@]2(C(=O)NS(=O)(=O)C2CC2)NC(=O)[C@@H]2CCCN2C1=O` [Compound 2139], in test [1] (setting [5]), the EC50 was below 1 µM. Moreover, the concentration for half-maximal inhibition (IC50) in test [2] was above 10000 nM.

On to “(2R,6S,13aS,14aR,16aS,Z)-6-(tert-butoxycarbonylamino)-9,9-difluoro-2-(4-fluoroisoindoline-2-carbonyloxy)-5,16-dioxo-1,2,3,5,6,7,8,9,10,11,13 a,14,14a,15,16,16a-hexadecahydrocyclopropa(e)prrolo[1,2-a][1,4]diazacyclopentadecine-14a-carboxylic acid [Compound 1006]”, for which the half-maximal effective concentration (EC50) in test [1] (setting [4]) is below 10 µM. For the same molecule, the IC50 in test [2] is below 100 nM.

The record behind these values is patent US8299021B2, “Macrocyclic inhibitors of hepatitis C virus replication” (InterMune, Inc., priority 2005, dated 2012).
